Source: ChEMBL document CHEMBL5465560, “Selectivity Literature for EUbOPEN Chemogenomic Library” (2024)

Legend:
[1] = target: Serine/threonine-protein kinase PLK1 (Homo sapiens, UniProt P53350); assay: Selectivity interaction (Kinase panel (KiNativ target engagement assay in Jurkat cells)) EUB0001635a PLK1; type: cell-based; settings: Selectivity number of off-targets 0.0, Selectivity number of targets 233.0, Source Knowledge https://www.sciencedirect.com/science/article/pii/S2451945619300674?via%3Dihub, at 1 µM
Sequence of Serine/threonine-protein kinase PLK1 (P53350 whole entry): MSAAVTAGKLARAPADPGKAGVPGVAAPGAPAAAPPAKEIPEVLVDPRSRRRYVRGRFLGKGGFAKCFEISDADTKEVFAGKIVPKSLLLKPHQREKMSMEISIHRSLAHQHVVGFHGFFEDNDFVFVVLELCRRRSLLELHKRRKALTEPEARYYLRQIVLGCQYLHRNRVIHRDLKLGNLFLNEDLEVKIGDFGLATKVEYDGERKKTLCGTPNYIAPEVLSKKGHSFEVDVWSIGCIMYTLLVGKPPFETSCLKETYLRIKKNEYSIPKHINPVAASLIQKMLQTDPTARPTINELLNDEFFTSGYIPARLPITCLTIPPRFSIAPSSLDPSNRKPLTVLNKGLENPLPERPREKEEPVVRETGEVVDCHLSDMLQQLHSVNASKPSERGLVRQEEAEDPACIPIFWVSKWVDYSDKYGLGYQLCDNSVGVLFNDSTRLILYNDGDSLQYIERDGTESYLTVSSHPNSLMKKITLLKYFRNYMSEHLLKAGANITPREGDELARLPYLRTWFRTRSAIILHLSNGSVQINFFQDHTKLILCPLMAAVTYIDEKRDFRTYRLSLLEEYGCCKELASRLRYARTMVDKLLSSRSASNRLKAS

[2] = target: Calcium/calmodulin-dependent protein kinase type II subunit beta (Homo sapiens) (UniProt Q13554); assay: Selectivity interaction (KinomeScan (DiscoverX)) EUB0000229b CAMK2B; settings: at 10 µM
Sequence of Calcium/calmodulin-dependent protein kinase type II subunit beta (Homo sapiens) (Q13554 whole entry): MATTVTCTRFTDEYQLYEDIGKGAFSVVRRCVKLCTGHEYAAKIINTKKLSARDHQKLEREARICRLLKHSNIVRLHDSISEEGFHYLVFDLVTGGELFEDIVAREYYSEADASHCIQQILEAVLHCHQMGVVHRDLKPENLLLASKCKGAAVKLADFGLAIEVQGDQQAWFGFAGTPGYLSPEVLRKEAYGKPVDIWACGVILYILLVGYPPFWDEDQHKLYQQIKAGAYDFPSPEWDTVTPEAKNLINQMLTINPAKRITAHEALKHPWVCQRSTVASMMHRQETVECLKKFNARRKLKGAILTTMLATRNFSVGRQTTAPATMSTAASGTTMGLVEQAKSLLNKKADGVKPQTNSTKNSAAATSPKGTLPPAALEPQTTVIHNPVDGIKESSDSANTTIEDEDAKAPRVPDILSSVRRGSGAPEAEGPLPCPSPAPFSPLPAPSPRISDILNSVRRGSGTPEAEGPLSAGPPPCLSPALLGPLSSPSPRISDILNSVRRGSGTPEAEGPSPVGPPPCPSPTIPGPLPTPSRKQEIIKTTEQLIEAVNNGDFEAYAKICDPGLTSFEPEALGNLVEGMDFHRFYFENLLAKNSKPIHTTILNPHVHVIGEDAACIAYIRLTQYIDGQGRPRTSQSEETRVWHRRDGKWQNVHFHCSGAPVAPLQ

[3] = target: Tyrosine-protein kinase Fer (Homo sapiens) (UniProt P16591); assay: Selectivity interaction (KinomeScan (DiscoverX)) EUB0000695a FER; settings: at 100 nM
Sequence of Tyrosine-protein kinase Fer (Homo sapiens) (P16591 whole entry, looked up): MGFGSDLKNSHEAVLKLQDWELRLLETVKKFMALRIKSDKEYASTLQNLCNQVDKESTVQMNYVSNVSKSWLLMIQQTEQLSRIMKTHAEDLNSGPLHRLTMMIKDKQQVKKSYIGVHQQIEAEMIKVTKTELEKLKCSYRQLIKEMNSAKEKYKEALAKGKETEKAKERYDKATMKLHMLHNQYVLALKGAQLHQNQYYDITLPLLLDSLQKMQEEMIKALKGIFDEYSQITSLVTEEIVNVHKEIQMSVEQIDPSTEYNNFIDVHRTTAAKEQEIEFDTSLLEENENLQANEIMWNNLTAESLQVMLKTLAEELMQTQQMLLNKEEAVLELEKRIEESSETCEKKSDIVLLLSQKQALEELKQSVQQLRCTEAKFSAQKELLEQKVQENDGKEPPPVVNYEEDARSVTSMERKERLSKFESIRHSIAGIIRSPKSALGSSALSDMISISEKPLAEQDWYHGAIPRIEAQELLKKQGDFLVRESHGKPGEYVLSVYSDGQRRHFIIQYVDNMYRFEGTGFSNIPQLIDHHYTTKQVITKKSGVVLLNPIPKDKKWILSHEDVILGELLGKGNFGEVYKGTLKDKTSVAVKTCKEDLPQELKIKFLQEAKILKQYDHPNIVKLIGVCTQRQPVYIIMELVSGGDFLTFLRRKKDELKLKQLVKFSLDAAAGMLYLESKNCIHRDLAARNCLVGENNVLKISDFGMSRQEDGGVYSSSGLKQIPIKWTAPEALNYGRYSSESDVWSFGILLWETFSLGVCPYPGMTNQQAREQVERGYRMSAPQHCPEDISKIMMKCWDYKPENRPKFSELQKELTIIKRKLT

[4] = target: RAC-beta serine/threonine-protein kinase (Homo sapiens) (UniProt P31751); assay: Selectivity interaction (Rxn Biology Kinase assay) EUB0001632a AKT2; settings: at 10 µM
Sequence of RAC-beta serine/threonine-protein kinase (Homo sapiens) (P31751 whole entry): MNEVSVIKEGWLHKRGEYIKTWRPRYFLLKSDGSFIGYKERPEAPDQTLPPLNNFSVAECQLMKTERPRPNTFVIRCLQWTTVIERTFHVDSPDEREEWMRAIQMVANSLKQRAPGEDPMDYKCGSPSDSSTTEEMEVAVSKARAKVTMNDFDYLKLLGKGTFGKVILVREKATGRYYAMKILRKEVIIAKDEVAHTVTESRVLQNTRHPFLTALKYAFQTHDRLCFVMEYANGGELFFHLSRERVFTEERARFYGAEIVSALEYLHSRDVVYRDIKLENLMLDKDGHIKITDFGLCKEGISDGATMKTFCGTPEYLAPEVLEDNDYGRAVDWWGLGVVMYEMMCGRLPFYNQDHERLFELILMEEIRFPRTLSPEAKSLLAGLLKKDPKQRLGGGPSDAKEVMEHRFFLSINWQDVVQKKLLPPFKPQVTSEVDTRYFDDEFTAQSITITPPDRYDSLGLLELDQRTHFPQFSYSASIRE

[5] = target: Leucine-rich repeat serine/threonine-protein kinase 2 (Homo sapiens, UniProt Q5S007); assay: Selectivity interaction (KinomeScan (DiscoverX)) EUB0000666a LRRK2; settings: at 10 µM
[6] = target: Mitogen-activated protein kinase kinase kinase kinase 1 (Homo sapiens) (UniProt Q92918); assay: Selectivity interaction (KinomeScan (DiscoverX)) EUB0000666a MAP4K1; settings: at 10 µM
Sequence of Mitogen-activated protein kinase kinase kinase kinase 1 (Homo sapiens) (Q92918 whole entry, looked up): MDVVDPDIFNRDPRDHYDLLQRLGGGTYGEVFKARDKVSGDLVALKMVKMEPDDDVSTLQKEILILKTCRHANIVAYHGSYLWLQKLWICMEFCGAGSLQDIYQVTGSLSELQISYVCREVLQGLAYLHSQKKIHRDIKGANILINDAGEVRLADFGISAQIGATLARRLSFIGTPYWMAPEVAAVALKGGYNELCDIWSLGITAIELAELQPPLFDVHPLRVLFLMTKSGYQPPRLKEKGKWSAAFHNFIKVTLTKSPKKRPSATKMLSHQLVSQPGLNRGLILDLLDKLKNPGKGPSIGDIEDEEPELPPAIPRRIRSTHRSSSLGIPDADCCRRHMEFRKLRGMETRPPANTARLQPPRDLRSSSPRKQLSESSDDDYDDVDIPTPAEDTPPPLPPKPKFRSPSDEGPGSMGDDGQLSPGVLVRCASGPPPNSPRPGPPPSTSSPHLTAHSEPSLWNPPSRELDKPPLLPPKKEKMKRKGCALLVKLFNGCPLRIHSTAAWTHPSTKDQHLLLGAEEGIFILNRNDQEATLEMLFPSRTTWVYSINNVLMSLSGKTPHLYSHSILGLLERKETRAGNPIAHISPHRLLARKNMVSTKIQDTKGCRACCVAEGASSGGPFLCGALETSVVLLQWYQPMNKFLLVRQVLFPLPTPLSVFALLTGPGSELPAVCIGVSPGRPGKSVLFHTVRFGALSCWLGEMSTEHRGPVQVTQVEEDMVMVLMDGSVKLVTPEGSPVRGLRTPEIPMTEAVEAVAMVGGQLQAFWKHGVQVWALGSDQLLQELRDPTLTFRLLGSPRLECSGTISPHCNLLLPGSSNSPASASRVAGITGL

[7] = target: Histone-lysine N-methyltransferase, H3 lysine-79 specific (Homo sapiens, UniProt Q8TEK3); assay: Selectivity interaction (Transferase panel (protein, RNA, and DNA methyltransferases. and EP300 (acetyltransferase))) EUB0000270b DOT1L
Sequence of Histone-lysine N-methyltransferase, H3 lysine-79 specific (Q8TEK3 whole entry, looked up): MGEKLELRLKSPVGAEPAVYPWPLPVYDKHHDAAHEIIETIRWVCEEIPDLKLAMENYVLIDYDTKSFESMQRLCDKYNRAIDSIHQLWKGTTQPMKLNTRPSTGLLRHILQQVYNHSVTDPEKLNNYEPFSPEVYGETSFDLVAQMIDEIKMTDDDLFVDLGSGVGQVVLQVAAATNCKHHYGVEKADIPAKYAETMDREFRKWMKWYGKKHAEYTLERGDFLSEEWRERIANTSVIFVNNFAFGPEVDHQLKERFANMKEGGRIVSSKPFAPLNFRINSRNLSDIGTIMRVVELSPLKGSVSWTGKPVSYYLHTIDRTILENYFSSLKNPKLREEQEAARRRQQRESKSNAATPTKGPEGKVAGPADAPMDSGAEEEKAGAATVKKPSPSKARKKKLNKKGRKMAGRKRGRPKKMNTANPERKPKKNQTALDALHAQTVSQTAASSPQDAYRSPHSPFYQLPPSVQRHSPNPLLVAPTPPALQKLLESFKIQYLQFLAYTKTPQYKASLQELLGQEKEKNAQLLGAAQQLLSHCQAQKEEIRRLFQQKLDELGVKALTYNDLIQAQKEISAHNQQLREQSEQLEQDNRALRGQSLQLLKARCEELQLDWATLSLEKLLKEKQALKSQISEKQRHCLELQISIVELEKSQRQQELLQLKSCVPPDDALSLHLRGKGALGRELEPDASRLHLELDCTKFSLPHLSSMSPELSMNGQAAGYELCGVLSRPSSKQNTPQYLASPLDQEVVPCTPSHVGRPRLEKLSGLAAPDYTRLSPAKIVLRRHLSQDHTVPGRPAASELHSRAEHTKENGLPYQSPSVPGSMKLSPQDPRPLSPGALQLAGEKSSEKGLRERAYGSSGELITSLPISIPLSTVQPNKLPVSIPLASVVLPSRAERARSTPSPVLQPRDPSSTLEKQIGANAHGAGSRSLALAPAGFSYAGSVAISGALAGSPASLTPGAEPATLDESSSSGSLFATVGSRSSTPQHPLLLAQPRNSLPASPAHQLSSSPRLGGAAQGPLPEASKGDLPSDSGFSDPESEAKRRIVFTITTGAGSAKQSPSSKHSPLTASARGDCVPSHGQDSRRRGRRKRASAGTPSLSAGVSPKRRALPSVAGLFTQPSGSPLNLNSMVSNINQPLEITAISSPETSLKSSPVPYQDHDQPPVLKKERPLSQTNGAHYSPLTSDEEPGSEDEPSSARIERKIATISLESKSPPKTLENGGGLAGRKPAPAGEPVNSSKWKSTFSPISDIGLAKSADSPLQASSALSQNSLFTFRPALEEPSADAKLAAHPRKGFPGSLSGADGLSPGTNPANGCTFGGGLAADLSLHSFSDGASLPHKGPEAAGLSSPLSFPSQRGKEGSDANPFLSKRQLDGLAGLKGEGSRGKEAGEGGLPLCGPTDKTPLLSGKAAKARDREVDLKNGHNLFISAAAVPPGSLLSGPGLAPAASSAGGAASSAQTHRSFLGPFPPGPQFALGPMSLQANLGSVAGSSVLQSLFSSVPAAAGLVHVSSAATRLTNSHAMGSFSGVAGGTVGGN

[8] = test system: T1, Receptor-type tyrosine-protein kinase FLT3 (Homo sapiens), P36888 [K663Q]; settings: at 10 µM
T1 sequence (whole entry): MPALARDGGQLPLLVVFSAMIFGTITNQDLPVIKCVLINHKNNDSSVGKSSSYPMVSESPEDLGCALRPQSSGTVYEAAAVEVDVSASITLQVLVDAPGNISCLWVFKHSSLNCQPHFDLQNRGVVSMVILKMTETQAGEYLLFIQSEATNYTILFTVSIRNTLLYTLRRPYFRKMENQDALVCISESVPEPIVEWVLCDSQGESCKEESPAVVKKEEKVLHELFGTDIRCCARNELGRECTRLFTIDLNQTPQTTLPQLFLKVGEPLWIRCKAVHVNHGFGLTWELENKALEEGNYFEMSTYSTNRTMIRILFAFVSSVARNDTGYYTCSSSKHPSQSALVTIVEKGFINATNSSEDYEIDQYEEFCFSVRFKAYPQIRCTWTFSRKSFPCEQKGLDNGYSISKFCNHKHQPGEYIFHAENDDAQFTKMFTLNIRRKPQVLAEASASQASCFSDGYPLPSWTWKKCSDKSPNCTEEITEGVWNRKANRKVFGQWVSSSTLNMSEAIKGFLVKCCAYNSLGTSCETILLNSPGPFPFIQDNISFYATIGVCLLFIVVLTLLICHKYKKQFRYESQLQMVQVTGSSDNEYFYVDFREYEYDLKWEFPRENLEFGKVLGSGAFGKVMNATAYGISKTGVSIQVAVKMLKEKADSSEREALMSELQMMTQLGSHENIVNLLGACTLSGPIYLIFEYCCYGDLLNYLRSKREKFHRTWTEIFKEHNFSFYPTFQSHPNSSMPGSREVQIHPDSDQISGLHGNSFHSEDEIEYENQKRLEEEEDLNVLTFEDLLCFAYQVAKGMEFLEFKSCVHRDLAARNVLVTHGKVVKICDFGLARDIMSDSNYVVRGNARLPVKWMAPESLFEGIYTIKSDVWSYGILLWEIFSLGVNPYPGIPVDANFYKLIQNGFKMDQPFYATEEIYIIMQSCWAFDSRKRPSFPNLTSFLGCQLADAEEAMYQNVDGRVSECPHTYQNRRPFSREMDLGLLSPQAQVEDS

[9] = target: RAC-beta serine/threonine-protein kinase (Homo sapiens) (UniProt P31751); assay: Selectivity interaction (ActivX KiNativ screen (ex vivo kinase selectivity in human PBMCs)) EUB0001619a AKT2; type: cell-based; settings: PBMC, at 1 µM
[10] = target: T2, Myosin-IIIb (Homo sapiens) (UniProt Q8WXR4); assay: Selectivity interaction (KinomeScan (DiscoverX)) EUB0000092b MYO3B; settings: at 10 µM
T2 sequence (whole entry): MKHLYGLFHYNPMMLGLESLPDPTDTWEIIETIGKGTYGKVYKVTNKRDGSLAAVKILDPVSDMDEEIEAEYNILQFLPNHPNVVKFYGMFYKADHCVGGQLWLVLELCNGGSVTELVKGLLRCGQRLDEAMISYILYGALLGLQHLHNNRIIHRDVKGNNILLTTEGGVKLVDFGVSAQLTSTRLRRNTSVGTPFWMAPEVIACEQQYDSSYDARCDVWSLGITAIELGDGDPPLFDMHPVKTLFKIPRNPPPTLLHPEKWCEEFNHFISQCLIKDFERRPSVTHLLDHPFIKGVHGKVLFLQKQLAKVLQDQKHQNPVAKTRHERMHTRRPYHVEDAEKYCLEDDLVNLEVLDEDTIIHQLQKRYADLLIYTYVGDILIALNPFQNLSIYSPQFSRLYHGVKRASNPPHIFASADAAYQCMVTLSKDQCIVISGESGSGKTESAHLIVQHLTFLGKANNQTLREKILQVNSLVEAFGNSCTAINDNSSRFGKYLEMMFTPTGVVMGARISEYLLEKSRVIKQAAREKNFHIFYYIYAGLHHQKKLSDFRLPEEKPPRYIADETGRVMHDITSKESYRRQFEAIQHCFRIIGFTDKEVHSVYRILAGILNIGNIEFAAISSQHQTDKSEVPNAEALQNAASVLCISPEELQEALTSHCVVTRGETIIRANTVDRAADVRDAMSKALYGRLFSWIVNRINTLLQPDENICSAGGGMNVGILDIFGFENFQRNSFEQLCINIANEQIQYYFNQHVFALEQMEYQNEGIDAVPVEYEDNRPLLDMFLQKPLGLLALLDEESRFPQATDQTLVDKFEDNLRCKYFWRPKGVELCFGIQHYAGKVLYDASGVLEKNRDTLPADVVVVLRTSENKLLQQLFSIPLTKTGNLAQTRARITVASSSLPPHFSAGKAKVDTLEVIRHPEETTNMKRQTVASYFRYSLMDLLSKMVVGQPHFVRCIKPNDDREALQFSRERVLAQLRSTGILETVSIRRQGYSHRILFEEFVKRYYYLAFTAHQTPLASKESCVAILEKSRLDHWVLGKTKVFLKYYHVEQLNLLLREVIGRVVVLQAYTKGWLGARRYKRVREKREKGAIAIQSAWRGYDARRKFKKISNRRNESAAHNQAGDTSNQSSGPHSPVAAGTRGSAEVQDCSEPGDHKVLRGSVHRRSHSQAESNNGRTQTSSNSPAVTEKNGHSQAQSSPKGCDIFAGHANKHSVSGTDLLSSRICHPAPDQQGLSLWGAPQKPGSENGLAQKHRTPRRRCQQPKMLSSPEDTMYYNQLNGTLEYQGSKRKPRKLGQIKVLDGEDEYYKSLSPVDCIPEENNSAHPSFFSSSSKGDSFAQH

C=CC(=O)Nc1ccc(C(=O)Nc2[nH]nc3c2CN(C(=O)N[C@H](CN(C)C)c2ccccc2)C3(C)C)cc1
% of engagement [1]: 8.1%

COc1cc(N(C)c2ccnc3ccc(C(F)(F)F)cc23)cc(OC)c1OC
% binding [2]: 83%

Cc1cc(F)c(C(=O)Nc2cccc(-c3nncn3C(C)C)n2)cc1-n1cnc(C2CC2)c1
% of control [3]: 72%

Cn1cc(-n2cnc3c(NCc4nc5cc(Cl)c(Cl)cc5[nH]4)nc(N4CCOCC4)nc32)cn1
% of inhibition [4]: 1.65%

O=C(NOC[C@H](O)CO)c1ccc(F)c(F)c1Nc1ccc(I)cc1F
% of control [5]: 86% | % of control [6]: 77%

Cc1cc(CN)cc(C)c1-c1ncn(C)c1-c1cncn1C
% activity ([7]; at 1 µM): > 90% | % activity ([7]; at 10 µM): > 80%

Cc1cc([C@@H](C)Nc2ccccc2C(=O)O)c2nc(N3CCOCC3)cc(=O)n2c1 [AZD-6482]
% of control [8]: 13%

N#Cc1cccc(-c2c[nH]c3ncnc(N4CCOCC4)c23)c1
% of inhibition [9]: 7%

CCC(=O)N1CCN(c2ccc(-n3c(=O)ccc4cnc5ccc(-c6cnc7ccccc7c6)cc5c43)cc2C(F)(F)F)CC1
% of control [10]: 100%
